Laboratory results from US20260083864A1, “CONTRAST AGENTS FOR USE IN DIAGNOSTIC COMPUTED TOMOGRAPHY IMAGING” (Bayer Aktiengesellschaft, priority 2022, published 2026).

Key:
[1] = Complex stability (transmetallation) against Zn2+ in phosphate buffer; conditions: 72 hours, 2.5 mM Zn^2+, 26 mM phosphate buffer, 37° C., pH 7.4
Source text: If test compounds are instable under these conditions, transmetallation during this test would lead to the formation of the Zn^2+ complex of the test item, while Gd^3+ is released and precipitated as highly insoluble GdPO4.

OATP1B1 = molecular target: T1, OATP1B1 (Homo sapiens, UniProt Q9Y6L6); assay: Uptake into stable transfected OATP1B1 HEK 293 cells; assay type: cell-based; conditions: for Uptake into OATP1B1-HEK 293 cells: 40 min incubation, relative to RC1 (Gd-EOB-DTPA); for Inhibition Rifampicine: uptake into OATP1B1-HEK 293 cells
T1 sequence (Q9Y6L6 1-691): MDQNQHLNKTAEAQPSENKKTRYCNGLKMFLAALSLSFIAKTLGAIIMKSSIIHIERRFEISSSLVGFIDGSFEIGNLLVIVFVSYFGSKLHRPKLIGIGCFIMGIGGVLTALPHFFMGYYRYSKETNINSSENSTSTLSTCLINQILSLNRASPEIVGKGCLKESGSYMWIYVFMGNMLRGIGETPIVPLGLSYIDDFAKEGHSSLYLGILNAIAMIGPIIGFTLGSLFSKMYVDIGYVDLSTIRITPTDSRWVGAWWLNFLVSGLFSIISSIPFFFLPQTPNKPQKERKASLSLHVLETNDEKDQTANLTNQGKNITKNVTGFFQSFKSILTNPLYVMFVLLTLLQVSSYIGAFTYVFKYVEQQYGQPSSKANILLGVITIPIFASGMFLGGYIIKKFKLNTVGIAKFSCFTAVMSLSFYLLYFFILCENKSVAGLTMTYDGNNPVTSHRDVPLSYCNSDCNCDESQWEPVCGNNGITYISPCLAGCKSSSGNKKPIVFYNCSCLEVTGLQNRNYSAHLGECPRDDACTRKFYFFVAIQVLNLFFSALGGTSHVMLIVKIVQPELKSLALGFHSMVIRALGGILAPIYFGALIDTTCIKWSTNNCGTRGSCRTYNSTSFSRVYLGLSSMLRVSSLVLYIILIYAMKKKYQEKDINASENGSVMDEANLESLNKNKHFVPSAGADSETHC
Procedure, shortened: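 Uptake measured in triplicate after a 40 min, unshaken exposure of OATP1B1-expressing HEK293 cells to 100 µM (final) compound in transport buffer. Cold PBS wash stopped uptake; Gd-EOB-DTPA served as reference standard within each plate.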

[2] = Relaxivity measurements at 1.41 T in water; assay type: physicochemical; conditions: 37° C., normalized to Gd
Procedure, shortened: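 T1 by inversion recovery and T2 by CPMG at 1.41 T (60 MHz), 37° C, relaxation delay ≥5×T1. Three Gd concentrations between 0.05 and 2 mM; relaxivities derived from measured relaxation rates in water.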

[3] = Partition coefficient (log P butanol/buffer); assay type: physicochemical; conditions: 1-butanol / 50 mM Tris-HCl, pH 7.4, room temperature
[4] = Water solubility in aqueous buffer; conditions: aqueous buffer 10 mM Tris-HCl, pH 7.4, 20° C.
Procedure: The solid compounds were added stepwise to the buffer solution. More substance is added once all the suspended material is dissolved until an equilibrium between undissolved and dissolved substance is reached. The suspension was mixed using a shaker (Heidolph Reax 2000) and treated 5 min in an ultrasound bath (Bandelin, Sonorex Super RK255H).

OATP1B3 = molecular target: T2, OATP1B3 (Homo sapiens, UniProt Q9NPD5); assay: Uptake into stable transfected OATP1B3 HEK 293 cells; assay type: cell-based; conditions: for Uptake into OATP1B3-HEK 293 cells: 40 min incubation, relative to RC1 (Gd-EOB-DTPA); for Inhibition Rifampicine: uptake into OATP1B3-HEK 293 cells
T2 sequence (Q9NPD5 1-702): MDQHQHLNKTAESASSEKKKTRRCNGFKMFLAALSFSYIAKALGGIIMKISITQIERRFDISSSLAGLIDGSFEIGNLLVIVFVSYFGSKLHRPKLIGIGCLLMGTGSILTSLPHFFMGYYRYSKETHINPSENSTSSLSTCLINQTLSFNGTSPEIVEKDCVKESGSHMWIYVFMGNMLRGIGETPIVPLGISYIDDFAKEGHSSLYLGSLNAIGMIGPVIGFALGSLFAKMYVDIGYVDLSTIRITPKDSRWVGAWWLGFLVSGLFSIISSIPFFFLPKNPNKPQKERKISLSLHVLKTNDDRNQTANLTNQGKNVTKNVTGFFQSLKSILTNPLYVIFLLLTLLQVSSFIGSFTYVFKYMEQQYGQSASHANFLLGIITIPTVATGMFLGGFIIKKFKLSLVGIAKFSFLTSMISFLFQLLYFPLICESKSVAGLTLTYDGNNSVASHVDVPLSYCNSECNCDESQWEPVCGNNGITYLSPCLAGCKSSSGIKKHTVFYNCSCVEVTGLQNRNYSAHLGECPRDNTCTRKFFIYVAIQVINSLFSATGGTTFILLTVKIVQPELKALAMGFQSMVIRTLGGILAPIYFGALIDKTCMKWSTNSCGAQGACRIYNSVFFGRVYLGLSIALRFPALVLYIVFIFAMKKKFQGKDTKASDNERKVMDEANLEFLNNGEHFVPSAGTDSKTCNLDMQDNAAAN
Procedure, shortened: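 HEK 293 cells stably transfected with human OATP1B3 were incubated for 40 min with test items at 100 μM final in transport buffer, in triplicate, then washed with cold PBS. Gadoxetate (Gd-EOB-DTPA) served as the reference standard on the same plate.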

[5] = Relaxivity measurements at 1.41 T in human plasma; assay type: physicochemical; conditions: 37° C., normalized to Gd
Procedure, shortened: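 T1 determined by inversion recovery (8 inversion-time steps) and T2 by CPMG sequence, both with relaxation delay ≥5×T1. Each relaxivity used three Gd concentrations between 0.05 and 2 mM. Relaxivities were derived from relaxation rates measured in water and plasma.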

[6] = tested on: freshly isolated rat hepatocytes; assay: Uptake into freshly isolated rat hepatocytes; conditions: for Uptake rat hepatocytes: 100 μmol Gd/L, 10 min, 37° C., relative to RC1 (Gd-EOB-DTPA); for Inhibition Rifampicine: rat hepatocyte uptake, test item and Rifampicine 1:1, each 100 μM
Procedure: After incubation the adherent hepatocytes were washed once with 37° C. Hepes carbonate transport buffer (500 μL/well). The test items and RC1 were prepared from stock solutions (180 to 500 mM concentration) in Hepes carbonate transport buffer at pH 7.4 to reach a final concentration of 100 μmol Gd/L. The specific uptake of the test item or RC1 into rat hepatocytes via OATP1B1 and OATP1B3 was challenged using a known OATP1B1/1B3 inhibitor (Rifampicine, Fa. Sigma R3501, test item and inhibitor 1:1 each 100 μM final concentration). The prepared rat hepatocyte plates were incubated with test solutions (500 μL/well) at 37° C. for 10 min using a thermoshaker (Fa. Grant Bio, PHMP). Triplicates were performed for each test item. After incubating the cells were washed once with cold PBS buffer (Fa. Gibco, Dulbeccos PBS (+)). After washing the intact hepatocytes were lysed by addition of 500 μL cold 0.01% Triton-X 100 in Millipore water for 1 h. […] As a reference standard RC1 is used in the same well plate. The hepatocyte uptake of the test compound is calculated relative to RC1 (resulting in the unit % of RC1).

Row | SMILES | Transmetallation stability [1] | Uptake into OATP1B1-HEK 293 cells (OATP1B1) | Inhibition Rifampicine (OATP1B1) | r1 water [2] | Log P (partition coefficient butanol/buffer) [3] | Solubility [4] | Uptake into OATP1B3-HEK 293 cells (OATP1B3) | Inhibition Rifampicine (OATP1B3) | r1 human plasma [5] | Uptake rat hepatocytes [6] | Inhibition Rifampicine [6]
1 | CCOCCOCCOc1ccc(CCCC(C(=O)O)N2CCN(CC(=O)[O-])CCN(CC(=O)[O-])CCN(CC(=O)[O-])CC2)cc1.[Gd+3] (centres unmarked) [Example 25, gadolinium 2,2′,2″-{10-[1-carboxy-4-{4-[2-(2-ethoxyethoxy)ethoxy]phenyl}butyl]-1,4,7,10-tetraazacyclododecane-1,4,7-triyl}triacetate] | 103% | 30 % of RC1 | 75 % inhibition | 4.6 L/mmol/s | −1.00 | 306 mM | 58 % of RC1 | 93 % inhibition | 7.5 L/mmol/s | 82 % of RC1 | 96 % inhibition
2 | CCOCCOCCOc1ccc(CCC[C@@H](C(=O)O)N2CCN(CC(=O)[O-])CCN(CC(=O)[O-])CCN(CC(=O)[O-])CC2)cc1.[Gd+3] [Example 26, gadolinium 2,2′,2″-{10-[(1S)-1-carboxy-4-{4-[2-(2-ethoxyethoxy)ethoxy]phenyl}butyl]-1,4,7,10-tetraazacyclododecane-1,4,7-triyl}triacetate] | 99% | 386 % of RC1 | 73 % inhibition | 4.5 L/mmol/s | −1.01 | >62 mM | 64 % of RC1 | 93 % inhibition | 7.5 L/mmol/s | 77 % of RC1 | 97 % inhibition
3 | CCOc1ccc(CCCC(C(=O)O)N2CCN(CC(=O)[O-])CCN(CC(=O)[O-])CCN(CC(=O)[O-])CC2)cc1.[Gd+3] (centres unmarked) [Example 28, gadolinium 2,2′,2″-{10-[1-carboxy-4-(4-ethoxyphenyl)butyl]-1,4,7,10-tetraazacyclododecane-1,4,7-triyl}triacetate] | 101% | 294 % of RC1 | 94 % inhibition | 4.4 L/mmol/s | −0.71 | >194 mM | 36 % of RC1 | 97 % inhibition | 10.6 L/mmol/s | 72 % of RC1 | 98 % inhibition
4 | CCCCOc1ccc(CCC[C@@H](C(=O)O)N2CCN(CC(=O)[O-])CCN(CC(=O)[O-])CCN(CC(=O)[O-])CC2)cc1.[Gd+3] [Example 31, gadolinium 2,2′,2″-{10-[(1S)-4-(4-butoxyphenyl)-1-carboxybutyl]-1,4,7,10-tetraazacyclododecane-1,4,7-triyl}triacetate] | 102% | 1919 % of RC1 | 98 % inhibition | 4.4 L/mmol/s | 0.20 | >255 mM | 194 % of RC1 | 99 % inhibition | 15.8 L/mmol/s | 87 % of RC1 | 94 % inhibition
5 | CCCCOc1cccc(CCC[C@@H](C(=O)O)N2CCN([C@@H](CO)C(=O)[O-])CCN([C@@H](CO)C(=O)[O-])CCN([C@@H](CO)C(=O)[O-])CC2)c1.[Gd+3] [Example 34, gadolinium (2S,2′S,2″S)-2,2′,2″-{10-[(1S)-4-(3-butoxyphenyl)-1-carboxybutyl]-1,4,7,10-tetraazacyclododecane-1,4,7-triyl}tris(3-hydroxypropanoate)] | 101% | 947 % of RC1 | 96 % inhibition | 4.9 L/mmol/s | 0.12 | >236 mM | 140 % of RC1 | 98 % inhibition | 18.0 L/mmol/s | 98 % of RC1 | 90 % inhibition
6 | CCOCCOc1ccc(CC(C(=O)O)N2CCN(CC(=O)[O-])CCN(C(COC)C(=O)[O-])CCN(CC(=O)[O-])CC2)cc1.[Gd+3] (centres unmarked) [Example 38, gadolinium 2-[7-{1-carboxy-2-[4-(2-ethoxyethoxy)phenyl]ethyl}-4,10-bis(carboxylatomethyl)-1,4,7,10-tetraazacyclododecan-1-yl]-3-methoxypropanoate] | 97% | 137 % of RC1 | 65 % inhibition | 5.6 L/mmol/s | −1.41 | >103 mM | 24 % of RC1 | 94 % inhibition | 7.5 L/mmol/s | 62 % of RC1 | 94 % inhibition
7 | CCOCCOCCOc1ccc(CC(C(=O)[O-])N2CCN(CC(=O)[O-])CCN(C(CC)C(=O)O)CCN(CC(=O)[O-])CC2)cc1.[Gd+3] (centres unmarked) [Example 43, gadolinium-2-{4,10-bis(carboxylatomethyl)-7-[1-carboxypropyl]-1,4,7,10-tetraazacyclododecan-1-yl}-3-{4-[2-(2-ethoxyethoxy)ethoxy]phenyl}propanoate] | 102% | 122 % of RC1 | 62 % inhibition | 4.8 L/mmol/s | −1.19 | >209 mM | 111 % of RC1 | 99 % inhibition | 6.9 L/mmol/s | 90 % of RC1 | 97 % inhibition
